In ChEMBL document CHEMBL5052856, “Inhibitors of apol1 and methods of using same” (2021) one finds IC50 data, which are given here for 71 compounds.

pIC50: −log10 of the molar value. Some results are limits rather than exact numbers.

This test deals with Apolipoprotein L1 (Homo sapiens, UniProt O14791). As to the kind of experiment: Inhibition of APOL1 G1 variant in human HEK293-T-REx cells measured by Thallium assay. It is filed as cell-based.

Take `O=C(NCC1(O)COC1)NC[C@H]1C[C@H](c2c(-c3ccc(F)cc3)[nH]c3c(F)cc(F)cc32)C1`: the pIC50 is below 6.00. In the case of `O=C(NC[C@H]1CC[C@@H](CO)O1)NC[C@H]1C[C@H](c2c(-c3ccc(F)cc3)[nH]c3c(F)cc(F)cc32)C1` it was below 6.00. `C[C@H](O)[C@H](CO)NC(=O)O[C@H]1C[C@H](c2c(-c3ccc(F)cc3)[nH]c3c(F)cc(F)cc32)C1` gave a pIC50 below 6.00. In the case of `O=C(NC[C@H]1C[C@H](c2c(-c3ccc(F)cc3)[nH]c3c(F)cc(F)cc32)C1)NC(CO)C(F)(F)F` (stereo partly specified) it was below 6.00; in that of `O=C(NCC(O)CO)O[C@H]1C[C@H](c2c(-c3ccc(F)cc3)[nH]c3c(F)cc(F)cc32)C1` (stereo partly specified), below 6.00.

Compound `CCC(O)CNC(=O)O[C@H]1C[C@H](c2c(-c3ccc(F)cc3)[nH]c3c(F)cc(F)cc32)C1` (stereo partly specified) showed a pIC50 below 6.00. Take `Cn1cnc(CNC(=O)O[C@H]2C[C@H](c3c(-c4ccc(F)cc4)[nH]c4c(F)cc(F)cc43)C2)c1`: the negative logarithm of the IC50 (pIC50) is below 6.00. `C[C@@H](O)CNC(=O)N(C)CC1CC(c2c(-c3ccc(F)cc3)[nH]c3c(F)cc(F)cc23)C1` (stereo partly specified) showed a negative logarithm of the IC50 (pIC50) below 6.00. Under `Cn1cc(CNC(=O)O[C@H]2C[C@H](c3c(-c4ccc(F)cc4)[nH]c4c(F)cc(F)cc43)C2)nn1` stands below 6.00. In the case of `CN(CC1CC(c2c(-c3ccc(F)cc3)[nH]c3c(F)cc(F)cc23)C1)C(=O)NCc1cn(C)cn1` (stereo unspecified) it was below 6.00; in that of `CC(O)C(C)NC(=O)O[C@H]1C[C@H](c2c(-c3ccc(F)cc3)[nH]c3c(F)cc(F)cc32)C1` (stereo partly specified), below 6.00. `C[C@H](CO)N(C)C(=O)NC[C@H]1C[C@H](c2c(-c3ccc(F)cc3)[nH]c3c(F)cc(F)cc32)C1` had a pIC50 below 6.00.

In the case of `COCC(C)NC(=O)O[C@H]1C[C@H](c2c(-c3ccc(F)cc3)[nH]c3c(F)cc(F)cc32)C1` (stereo partly specified), the negative logarithm of the IC50 (pIC50) is 9.60. Under `CC(CO)N(C)C(=O)NC[C@H]1C[C@H](c2c(-c3ccc(F)cc3)[nH]c3c(F)cc(F)cc32)C1` (stereo partly specified) stands below 6.00; under `O=C(NCC1CC1)O[C@H]1C[C@H](c2c(-c3ccc(F)cc3)[nH]c3c(F)cc(F)cc32)C1`, below 6.00. In the case of `CN(C(=O)NC[C@H]1C[C@H](c2c(-c3ccc(F)cc3)[nH]c3c(F)cc(F)cc32)C1)C1COCC1O` (stereo partly specified) it was below 6.00; in that of `COC[C@H](C)NC(=O)O[C@H]1C[C@H](c2c(-c3ccc(F)cc3)[nH]c3c(F)cc(F)cc32)C1`, below 6.00. In the case of `CC1(O)CC(NC(=O)NC[C@H]2C[C@H](c3c(-c4ccc(F)cc4)[nH]c4c(F)cc(F)cc43)C2)C1` (stereo partly specified), the pIC50 was below 6.00. In the case of `O=C(NCC1(O)CC1)NC[C@H]1C[C@H](c2c(-c3ccc(F)cc3)[nH]c3c(F)cc(F)cc32)C1` it was below 6.00.

With `CC1CC(NC(=O)NC[C@H]2C[C@H](c3c(-c4ccc(F)cc4)[nH]c4c(F)cc(F)cc43)C2)C(=O)O1` (stereo partly specified), the pIC50 was below 6.00. In the case of `O=C(NCc1ccco1)O[C@H]1C[C@H](c2c(-c3ccc(F)cc3)[nH]c3c(F)cc(F)cc32)C1` it was below 6.00; in that of `O=C(NC[C@H]1C[C@H](c2c(-c3ccc(F)cc3)[nH]c3c(F)cc(F)cc32)C1)NC1CC(O)C1` (stereo partly specified), below 6.00; in that of `O=C(NC[C@H]1C[C@H](c2c(-c3ccc(F)cc3)[nH]c3c(F)cc(F)cc32)C1)NC1(CO)CCOC1` (stereo partly specified), below 6.00. In the case of `CN(CC1CC(c2c(-c3ccc(F)cc3)[nH]c3c(F)cc(F)cc23)C1)C(=O)N1CCC1` (stereo unspecified) it was below 6.00; in that of `CC1(C)CC(NC(=O)NC[C@H]2C[C@H](c3c(-c4ccc(F)cc4)[nH]c4c(F)cc(F)cc43)C2)C(=O)O1` (stereo partly specified), below 6.00. In the case of `CNC(=O)NC[C@H]1C[C@H](c2c(-c3ccc(F)cc3)[nH]c3c(F)cc(F)cc32)C1` it was 9.60. `O=C(NC[C@H]1C[C@H](c2c(-c3ccc(F)cc3)[nH]c3c(F)cc(F)cc32)C1)NC1(CO)CC(F)(F)C1` gave a pIC50 below 6.00. On to `O=C(NC1CC(O)C1)O[C@H]1C[C@H](c2c(-c3ccc(F)cc3)[nH]c3c(F)cc(F)cc32)C1` (stereo partly specified), for which the pIC50 is below 6.00.

For `O=C(NC[C@H]1C[C@H](c2c(-c3ccc(F)cc3)[nH]c3c(F)cc(F)cc32)C1)N[C@H]1CC[C@H](O)C1`, the pIC50 is below 6.00. For the compound `C[C@@H](CO)NC(=O)NC[C@H]1C[C@H](c2c(-c3ccc(F)cc3)[nH]c3c(F)cc(F)cc32)C1`, the pIC50 is below 6.00.

`O=C(N[C@H]1COC[C@@H]1O)O[C@H]1C[C@H](c2c(-c3ccc(F)cc3)[nH]c3c(F)cc(F)cc32)C1` had a pIC50 below 6.00. Under `C[C@]1(NC(=O)NC[C@H]2C[C@H](c3c(-c4ccc(F)cc4)[nH]c4c(F)cc(F)cc43)C2)C[C@@H](O)C1` stands below 6.00; under `CC1(C)CC(C)(NC(=O)NC[C@H]2C[C@H](c3c(-c4ccc(F)cc4)[nH]c4c(F)cc(F)cc43)C2)C(=O)O1` (stereo partly specified), below 6.00.

In turn, `Cc1ccc(CNC(=O)O[C@H]2C[C@H](c3c(-c4ccc(F)cc4)[nH]c4c(F)cc(F)cc43)C2)o1` gave a pIC50 below 6.00. Compound `C[C@H](CO)NC(=O)NC[C@H]1C[C@H](c2c(-c3ccc(F)cc3)[nH]c3c(F)cc(F)cc32)C1` had a pIC50 below 6.00. Under `O=C(NCC1(CO)COC1)NC[C@H]1C[C@H](c2c(-c3ccc(F)cc3)[nH]c3c(F)cc(F)cc32)C1` stands below 6.00; under `CC1(NC(=O)NC[C@H]2C[C@H](c3c(-c4ccc(F)cc4)[nH]c4c(F)cc(F)cc43)C2)CCNC1=O` (stereo partly specified), below 6.00. In the case of `C[C@H](O)CNC(=O)O[C@H]1C[C@H](c2c(-c3ccc(F)cc3)[nH]c3c(F)cc(F)cc32)C1` it was below 6.00. `O=C(NCC1CCNC1=O)NC[C@H]1C[C@H](c2c(-c3ccc(F)cc3)[nH]c3c(F)cc(F)cc32)C1` (stereo partly specified): the pIC50 was below 6.00. Under `CC(C)(O)CNC(=O)NC[C@H]1C[C@H](c2c(-c3ccc(F)cc3)[nH]c3c(F)cc(F)cc32)C1` stands below 6.00; under `CO[C@H]1C[C@@H](NC(=O)O[C@H]2C[C@H](c3c(-c4ccc(F)cc4)[nH]c4c(F)cc(F)cc43)C2)C1`, below 6.00. In turn, `CNC(=O)N(C)CC1CC(c2c(-c3ccc(F)cc3)[nH]c3c(F)cc(F)cc23)C1` (stereo unspecified) showed a pIC50 below 6.00.

In turn, `C[C@H](O)CNC(=O)N(C)CC1CC(c2c(-c3ccc(F)cc3)[nH]c3c(F)cc(F)cc23)C1` (stereo partly specified) showed a pIC50 below 6.00. In the case of `O=C(NC[C@H]1C[C@H](c2c(-c3ccc(F)cc3)[nH]c3c(F)cc(F)cc32)C1)N[C@H]1C[C@H](O)C1` it was below 6.00. In the case of `O=C(NCCO)NC[C@H]1C[C@H](c2c(-c3ccc(F)cc3)[nH]c3c(F)cc(F)cc32)C1` it was below 6.00; in that of `O=C(N[C@H]1CCOC1)O[C@H]1C[C@H](c2c(-c3ccc(F)cc3)[nH]c3c(F)cc(F)cc32)C1`, below 6.00; in that of `O=C(NC[C@H]1C[C@H](c2c(-c3ccc(F)cc3)[nH]c3c(F)cc(F)cc32)C1)N[C@H]1CC[C@@H]1O`, below 6.00. Under `O=C(NC[C@H]1C[C@H](c2c(-c3ccc(F)cc3)[nH]c3c(F)cc(F)cc32)C1)N1CCC[C@@H]1CO` stands below 6.00; under `C[C@@H](O)CNC(=O)O[C@H]1C[C@H](c2c(-c3ccc(F)cc3)[nH]c3c(F)cc(F)cc32)C1`, below 6.00; under `COC1CC1NC(=O)O[C@H]1C[C@H](c2c(-c3ccc(F)cc3)[nH]c3c(F)cc(F)cc32)C1` (stereo partly specified), below 6.00. `CC(C)(C)[C@H](CO)NC(=O)NC[C@H]1C[C@H](c2c(-c3ccc(F)cc3)[nH]c3c(F)cc(F)cc32)C1` showed a pIC50 below 6.00.

`CC(C)[C@@H](CO)NC(=O)O[C@H]1C[C@H](c2c(-c3ccc(F)cc3)[nH]c3c(F)cc(F)cc32)C1` gave a negative logarithm of the IC50 (pIC50) below 6.00. In the case of `CC[C@H](CO)NC(=O)NC[C@H]1C[C@H](c2c(-c3ccc(F)cc3)[nH]c3c(F)cc(F)cc32)C1` it was below 6.00; in that of `O=C(NCC1CCOC1)O[C@H]1C[C@H](c2c(-c3ccc(F)cc3)[nH]c3c(F)cc(F)cc32)C1` (stereo partly specified), below 6.00. In the case of `CC1(O)CC(NC(=O)O[C@H]2C[C@H](c3c(-c4ccc(F)cc4)[nH]c4c(F)cc(F)cc43)C2)C1` (stereo partly specified) it was below 6.00. In the case of `CC(C)C(CO)NC(=O)O[C@H]1C[C@H](c2c(-c3ccc(F)cc3)[nH]c3c(F)cc(F)cc32)C1` (stereo partly specified) it was below 6.00; in that of `O=C(NC1CCOC1)O[C@H]1C[C@H](c2c(-c3ccc(F)cc3)[nH]c3c(F)cc(F)cc32)C1` (stereo partly specified), below 6.00; in that of `Cc1cnc(CNC(=O)O[C@H]2C[C@H](c3c(-c4ccc(F)cc4)[nH]c4c(F)cc(F)cc43)C2)o1`, below 6.00. The compound `CC[C@@H](CO)NC(=O)NC[C@H]1C[C@H](c2c(-c3ccc(F)cc3)[nH]c3c(F)cc(F)cc32)C1` showed a pIC50 below 6.00. `O=C(NC[C@H](O)C(F)(F)F)NC[C@H]1C[C@H](c2c(-c3ccc(F)cc3)[nH]c3c(F)cc(F)cc32)C1` showed a pIC50 below 6.00. In the case of `O=C(NCc1ncc[nH]1)O[C@H]1C[C@H](c2c(-c3ccc(F)cc3)[nH]c3c(F)cc(F)cc32)C1` it was below 6.00. In the case of `CC(CO)(CO)NC(=O)NC[C@H]1C[C@H](c2c(-c3ccc(F)cc3)[nH]c3c(F)cc(F)cc32)C1` it was below 6.00. The compound `C[C@@H](O)[C@@H](CO)NC(=O)O[C@H]1C[C@H](c2c(-c3ccc(F)cc3)[nH]c3c(F)cc(F)cc32)C1` showed a negative-log IC50 (pIC50) below 6.00. Under `O=C(NC[C@H]1C[C@H](c2c(-c3ccc(F)cc3)[nH]c3c(F)cc(F)cc32)C1)N[C@H]1CC[C@H]1O` stands below 6.00. In the case of `O=C(NCc1cn(CC(F)(F)F)cn1)O[C@H]1C[C@H](c2c(-c3ccc(F)cc3)[nH]c3c(F)cc(F)cc32)C1` it was below 6.00. In the case of `O=C(N[C@H](CO)C(F)(F)F)O[C@H]1C[C@H](c2c(-c3ccc(F)cc3)[nH]c3c(F)cc(F)cc32)C1` it was below 6.00; in that of `CC(O)(CO)CNC(=O)O[C@H]1C[C@H](c2c(-c3ccc(F)cc3)[nH]c3c(F)cc(F)cc32)C1` (stereo partly specified), below 6.00. Compound `CCNC(=O)NC[C@H]1C[C@H](c2c(-c3ccc(F)cc3)[nH]c3c(F)cc(F)cc32)C1` had a pIC50 below 6.00. In the case of `C[C@@H](O)CNC(=O)NC[C@H]1C[C@H](c2c(-c3ccc(F)cc3)[nH]c3c(F)cc(F)cc32)C1` it was below 6.00; in that of `Cc1cc(CNC(=O)O[C@H]2C[C@H](c3c(-c4ccc(F)cc4)[nH]c4c(F)cc(F)cc43)C2)on1`, below 6.00; in that of `CN(CC1CC(c2c(-c3ccc(F)cc3)[nH]c3c(F)cc(F)cc23)C1)C(=O)NCCO` (stereo unspecified), below 6.00.
